Measured values published in ChEMBL document CHEMBL1681651, “A broad spectrum anticancer nucleoside with selective toxicity against human colon cells in vitro” (2011).

Assays:
Format in all cases: functional
U-251 = assay: Growth inhibition of human U251 cells assessed as cell growth at 10 uM after 48 hrs by SRB assay; conditions: U-251, 48 h, read-out: Activity
HCT-116 = assay: Growth inhibition of human HCT116 cells assessed as cell growth at 10 uM after 48 hrs by SRB assay; conditions: HCT-116, 48 h, read-out: Activity
MOLT-4 = assay: Growth inhibition of human MOLT4 cells assessed as cell growth at 10 uM after 48 hrs by SRB assay; conditions: MOLT-4, 48 h, read-out: Activity
TK-10 = assay: Growth inhibition of human TK10 cells assessed as cell growth at 10 uM after 48 hrs by SRB assay; conditions: TK-10, 48 h, read-out: Activity
HOP-92 [1] = assay: Growth inhibition of human HOP92 cells assessed as cell growth at 10 uM after 48 hrs by SRB assay; conditions: HOP-92, 48 h, read-out: Activity
NCI-H460 = assay: Growth inhibition of human NCI-H460 cells assessed as cell growth at 10 uM after 48 hrs by SRB assay; conditions: NCI-H460, 48 h, read-out: Activity
EKVX [2] = assay: Growth inhibition of human EKVX cells assessed as cell growth at 10 uM after 48 hrs by SRB assay; conditions: read-out: Activity
UO-31 [3] = assay: Growth inhibition of human UO31 cells assessed as cell growth at 1 uM after 48 hrs by SRB assay; conditions: UO-31, 48 h, read-out: Activity
HT-29 = assay: Growth inhibition of human HT-29 cells assessed as cell growth at 1 uM after 48 hrs by SRB assay; conditions: HT-29, 48 h, read-out: Activity
HCT-15 = assay: Growth inhibition of human HCT15 cells assessed as cell growth at 1 uM after 48 hrs by SRB assay; conditions: HCT-15, 48 h, read-out: Activity
SK-MEL-5 = assay: Growth inhibition of human SK-MEL-5 cells after 48 hrs by […] growth inhibition assay; conditions: SK-MEL-5, 48 h
IGROV-1 [4] = assay: Growth inhibition of human IGROV1 cells after 48 hrs by […] growth inhibition assay; conditions: IGROV-1, 48 h
NCI-H23 = assay: Growth inhibition of human NCI-H23 cells after 48 hrs by […] growth inhibition assay; conditions: NCI-H23, 48 h
UACC-62 [5] = assay: Growth inhibition of human UACC62 cells assessed as cell growth at 1 mM after 48 hrs by SRB assay; conditions: UACC-62, 48 h, read-out: Activity
SN12C = assay: Growth inhibition of human SN12C cells assessed as cell growth at 0.1 uM after 48 hrs by SRB assay; conditions: read-out: Activity
COLO 205 = assay: Growth inhibition of human COLO205 cells after 48 hrs by […] growth inhibition assay; conditions: COLO 205, 48 h
A498 = assay: Growth inhibition of human A498 cells assessed as cell growth at 1 uM after 48 hrs by SRB assay; conditions: A498, 48 h, read-out: Activity
SNB-19 [6] = assay: Growth inhibition of human SNB19 cells after 48 hrs by […] growth inhibition assay; conditions: SNB-19, 48 h
IGROV-1 [7] = assay: Growth inhibition of human IGROV1 cells assessed as cell growth at 1 uM after 48 hrs by SRB assay; conditions: IGROV-1, 48 h, read-out: Activity
SNB-19 [8] = assay: Growth inhibition of human SNB19 cells assessed as cell growth at 0.1 uM after 48 hrs by SRB assay; conditions: SNB-19, 48 h, read-out: Activity
UO-31 [9] = assay: Growth inhibition of human UO31 cells assessed as cell growth at 1 mM after 48 hrs by SRB assay; conditions: UO-31, 48 h, read-out: Activity
HCC 2998 [10] = assay: Growth inhibition of human HCC2998 cells assessed as cell growth at 1 mM after 48 hrs by SRB assay; conditions: HCC 2998, 48 h, read-out: Activity
EKVX [11] = assay: Growth inhibition of human EKVX cells after 48 hrs by […] growth inhibition assay
HCC 2998 [12] = assay: Growth inhibition of human HCC2998 cells assessed as cell growth at 1 uM after 48 hrs by SRB assay; conditions: HCC 2998, 48 h, read-out: Activity
SK-MEL-2 = assay: Growth inhibition of human SK-MEL-2 cells assessed as cell growth at 100 uM after 48 hrs by SRB assay; conditions: SK-MEL-2, 48 h, read-out: Activity
HCC 2998 [13] = assay: Growth inhibition of human HCC2998 cells after 48 hrs by […] growth inhibition assay; conditions: HCC 2998, 48 h
EKVX [14] = assay: Growth inhibition of human EKVX cells assessed as cell growth at 100 uM after 48 hrs by SRB assay; conditions: read-out: Activity
UACC-62 [15] = assay: Growth inhibition of human UACC62 cells assessed as cell growth at 0.1 uM after 48 hrs by SRB assay; conditions: UACC-62, 48 h, read-out: Activity
HOP-62 = assay: Growth inhibition of human HOP62 cells assessed as cell growth at 0.1 uM after 48 hrs by SRB assay; conditions: HOP-62, 48 h, read-out: Activity
ACHN = assay: Growth inhibition of human ACHN cells after 48 hrs by […] growth inhibition assay
HOP-92 [16] = assay: Growth inhibition of human HOP92 cells after 48 hrs by […] growth inhibition assay; conditions: HOP-92, 48 h
[17] = read-out: LC50 (the source's name)
[18] = read-out: pLC50 (the source's name) (converted)

**Q.** For `CNC(=O)OC[C@H]1O[C@@H](n2cnc3c(NC(=O)Nc4ccccc4)ncnc32)[C@H](O[Si](C)(C)C(C)(C)C)[C@@H]1O[Si](C)(C)C(C)(C)C`, which growth at 10 µM (U-251) is on record?
**A.** 86%

**Q.** What about the growth at 10 µM (HCT-116) of the same compound?
**A.** 66.7%

**Q.** And the growth at 10 µM (MOLT-4)?
**A.** 75.3%

**Q.** And the growth at 10 µM (TK-10)?
**A.** 96%

**Q.** What about the growth at 10 µM (HOP-92 [1]) of the same compound?
**A.** 54.7%

**Q.** And the growth at 10 µM (NCI-H460)?
**A.** 103%

**Q.** And the growth at 10 µM (EKVX [2])?
**A.** 104%

**Q.** Which results are given for `CNC(=O)NC[C@H]1O[C@@H](n2cnc3c(NC(=O)Nc4ccccc4)ncnc32)[C@H](O[Si](C)(C)C(C)(C)C)[C@@H]1O[Si](C)(C)C(C)(C)C`?
**A.** growth at 1 µM (UO-31 [3]): 97%; growth at 1 µM (HT-29): 104%; growth at 1 µM (HCT-15): 106%; GI50 (SK-MEL-5; read-out: GI50): 1.98 µM; CC50 (SK-MEL-5; [17]): 13.6 µM; TGI (SK-MEL-5; read-out: TGI): 4.75 µM; GI50 (SK-MEL-5; read-out: pGI50 (converted)): 2 µM; CC50 (SK-MEL-5; [18]): 13.5 µM; TGI (SK-MEL-5; read-out: pTGI (converted)): 4.79 µM; growth at 10 µM (U-251): 93%; GI50 (IGROV-1 [4]; read-out: GI50): 2.74 µM; CC50 (IGROV-1 [4]; [17]): > 100 µM; TGI (IGROV-1 [4]; read-out: TGI): 7.76 µM; GI50 (IGROV-1 [4]; read-out: pGI50 (converted)): 2.75 µM; CC50 (IGROV-1 [4]; [18]): > 100 µM; TGI (IGROV-1 [4]; read-out: pTGI (converted)): 7.76 µM; GI50 (NCI-H23; read-out: GI50): 3.17 µM; CC50 (NCI-H23; [17]): 86 µM; TGI (NCI-H23; read-out: TGI): 9.07 µM; GI50 (NCI-H23; read-out: pGI50 (converted)): 3.16 µM; CC50 (NCI-H23; [18]): 85.1 µM; TGI (NCI-H23; read-out: pTGI (converted)): 9.12 µM; growth at 1000 µM (UACC-62 [5]): -39%; growth at 0.1 µM (SN12C): 100%; GI50 (COLO 205; read-out: GI50): 1.89 µM; CC50 (COLO 205; [17]): 5.98 µM; TGI (COLO 205; read-out: TGI): 3.36 µM; GI50 (COLO 205; read-out: pGI50 (converted)): 1.91 µM; CC50 (COLO 205; [18]): 6.03 µM; TGI (COLO 205; read-out: pTGI (converted)): 3.39 µM; growth at 1 µM (A498): 97%; GI50 (SNB-19 [6]; read-out: GI50): 4.57 µM; CC50 (SNB-19 [6]; [17]): > 100 µM; TGI (SNB-19 [6]; read-out: TGI): > 100 µM; GI50 (SNB-19 [6]; read-out: pGI50 (converted)): 4.57 µM; CC50 (SNB-19 [6]; [18]): > 100 µM; TGI (SNB-19 [6]; read-out: pTGI): > 100 µM; growth at 1 µM (IGROV-1 [7]): 99%; growth at 0.1 µM (SNB-19 [8]): 97%; growth at 1000 µM (UO-31 [9]): -21%; growth at 1000 µM (HCC 2998 [10]): -91%; GI50 (EKVX [11]; read-out: GI50): 3.7 µM; CC50 (EKVX [11]; [17]): > 100 µM; TGI (EKVX [11]; read-out: TGI): 30.6 µM; GI50 (EKVX [11]; read-out: pGI50 (converted)): 3.72 µM; CC50 (EKVX [11]; [18]): > 100 µM; TGI (EKVX [11]; read-out: pTGI (converted)): 30.9 µM; growth at 1 µM (HCC 2998 [12]): 93%; growth at 100 µM (SK-MEL-2): -36%; GI50 (HCC 2998 [13]; read-out: GI50): 2.02 µM; CC50 (HCC 2998 [13]; [17]): 6.99 µM; TGI (HCC 2998 [13]; read-out: TGI): 3.75 µM; GI50 (HCC 2998 [13]; read-out: pGI50 (converted)): 2 µM; CC50 (HCC 2998 [13]; [18]): 6.92 µM; TGI (HCC 2998 [13]; read-out: pTGI (converted)): 3.72 µM; growth at 10 µM (HCT-116): 102%; growth at 10 µM (TK-10): 112%; growth at 100 µM (EKVX [14]): 9%; growth at 0.1 µM (UACC-62 [15]): 102%; growth at 0.1 µM (HOP-62): 102%; GI50 (ACHN; read-out: GI50): 3.83 µM; CC50 (ACHN; [17]): > 100 µM; TGI (ACHN; read-out: TGI): > 100 µM; GI50 (ACHN; read-out: pGI50 (converted)): 3.8 µM; CC50 (ACHN; [18]): > 100 µM; TGI (ACHN; read-out: pTGI): > 100 µM; growth at 10 µM (HOP-92 [1]): 69%; GI50 (HOP-92 [16]; read-out: GI50): 1.56 µM; CC50 (HOP-92 [16]; [17]): 97.6 µM; TGI (HOP-92 [16]; read-out: TGI): 5.16 µM; GI50 (HOP-92 [16]; read-out: pGI50 (converted)): 1.55 µM; CC50 (HOP-92 [16]; [18]): 97.7 µM; TGI (HOP-92 [16]; read-out: pTGI (converted)): 5.13 µM; growth at 10 µM (NCI-H460): 88%; growth at 10 µM (EKVX [2]): 104%
